Each compound was assayed against BCL2 (Homo sapiens (Human), UniProt P10415) (assay: Molecular level activity test of anti-apoptotic protein BCL2 (HTRF, binding to Bim peptide)). Conditions: HTRF, binding of BCL2 to Bim peptide; read-out: BCL2 nM (inhibitory activity, IC50).
Summary of the method: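 HTRF readout; His-BCL2 + biotin-BIM peptide + cpd (2% DMSO in compound addition), 1 h; then anti-His + SA-XL665 detection reagents, 4 h RT.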

Chain of BCL2 (P10415 whole entry): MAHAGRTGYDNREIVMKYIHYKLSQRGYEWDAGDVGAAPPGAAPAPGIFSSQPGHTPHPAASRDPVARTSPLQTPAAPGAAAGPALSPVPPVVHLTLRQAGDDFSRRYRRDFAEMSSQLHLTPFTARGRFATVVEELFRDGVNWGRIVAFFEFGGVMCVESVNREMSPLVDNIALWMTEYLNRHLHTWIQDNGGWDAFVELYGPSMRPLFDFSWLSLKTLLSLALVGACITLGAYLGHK

Compound | IC50 [nM]
CC(C)c1ccccc1[C@@H]1CN(Cc2cnn(C(C)C)c2)CCN1C1CC2(CCN(c3cc(Oc4cnc5[nH]ccc5c4)c(C(=O)NS(=O)(=O)c4ccc(NCC5(F)CCOCC5)c([N+](=O)[O-])c4)cc3F)CC2)C1 [compound 210, (R)-2-((1H-pyrrolo[2,3-b]pyrid-5-yl)oxy)-5-fluoro-N-((4-(((4-fluorotetrahydro-2H-pyran-4-yl)methyl)amino)-3-nitrophenyl)sulfonyl)-4-(2-(4-((1-isopropyl-1H-pyrazol-4-yl)methyl)-2-(2-isopropylphenyl)piperazin-1-yl)-7-azaspiro[3.5]non-7-yl)benzamide] | < 10
COc1ccc(CN2CCN(C3CC4(CCN(c5ccc(C(=O)NS(=O)(=O)c6cc([N+](=O)[O-])c(NC[C@H]7CC[C@](C)(O)CC7)c7[nH]cnc67)c(N6CCCOc7nc8[nH]ccc8cc76)c5)CC4)C3)C(c3ccccc3C(C)C)C2)cc1 (some centres unmarked) [compound 090, 2-(3,4-dihydro-2H-pyrrolo[3′,2′:5,6]pyridino[2,3-b][1,4]oxazacyclohept-1 (7H)-yl)-N-((7-((((1r,4r)-4-hydroxy-4-methylcyclohexyl)methyl)amino)-6-nitro-1H-benzo[d]imidazol-4-yl)sulfonyl)-4-(2-(2-(2-isopropylphenyl)-4-(4-methoxybenzyl)piperazin-1-yl)-7-azaspiro[3.5]non-7-yl)benzamide] | < 10
CC(C)c1ccccc1[C@@H]1CCCN1C1CC2(CCN(c3cc(Oc4cnc5[nH]ccc5c4)c(C(=O)NS(=O)(=O)c4cc([N+](=O)[O-])c(NCC5(F)CCN(CC(F)(F)F)CC5)c5[nH]cnc45)cn3)CC2)C1 [compound 031, (S)-4-((1H-pyrrolo[2,3-b]pyrid-5-yl)oxy)-N-((7-(((4-fluoro-1-(2,2,2-trifluoroethyl)piperid-4-yl)methyl)amino)-6-nitro-1H-benzo[d]imidazol-4-yl)sulfonyl)-6-(2-(2-(2-isopropylphenyl)pyrrolidin-1-yl)-7-azaspiro[3.5]non-7-yl) nicotinamide] | < 10
COc1ccc(CN2CCN(C3CC4(CCN(c5cc(Oc6cnc7[nH]ccc7c6)c(C(=O)NS(=O)(=O)c6cc([N+](=O)[O-])c(NCC7(F)CCOCC7)c7c6OCCO7)cn5)CC4)C3)[C@H](c3ccccc3C(C)C)C2)cc1 [compound 136, (R)-4-((1H-pyrrolo[2,3-b]pyrid-5-yl)oxy)-N-((8-(((4-fluorotetrahydro-2H-pyran-4-yl)methyl)amino)-7-nitro-2,3-dihydrobenzo[b][1,4]dioxan-5-yl)sulfonyl)-6-(2-(2-(2-isopropylphenyl)-4-(4-methoxybenzyl)piperazin-1-yl)-7-azaspiro[3.5]non-7-yl) nicotinamide] | < 10
COc1cc(CN2CCN(C3CC4(CCN(c5cc(Oc6cnc7[nH]ccc7c6)c(C(=O)NS(=O)(=O)c6ccc(NCC7(F)CCOCC7)c([N+](=O)[O-])c6)cc5F)CC4)C3)[C@H](c3ccccc3C(C)C)C2)cc2cc(C)oc12 [compound 202, (R)-2-((1H-pyrrolo[2,3-b]pyrid-5-yl)oxy)-5-fluoro-N-((4-(((4-fluorotetrahydro-2H-pyran-4-yl)methyl)amino)-3-nitrophenyl)sulfonyl)-4-(2-(2-(2-isopropylphenyl)-4-((7-methoxy-2-methylbenzofuran-5-yl)methyl)piperazin-1-yl)-7-azaspiro[3.5]non-7-yl)benzamide] | < 10
CC(C)c1ccccc1[C@@H]1CCCN1C1CC2(CCN(c3ccc(C(=O)NS(=O)(=O)c4cc([N+](=O)[O-])c(NCC5(F)CCOCC5)c5[nH]cnc45)c(N4CCCOc5nc6[nH]ccc6cc54)c3)CC2)C1 [compound 088, (S)-2-(3,4-dihydro-2H-pyrrolo[3′,2′:5,6]pyridino[2,3-b][1,4]oxazacyclohept-1 (7H)-yl)-N-((7-(((4-fluorotetrahydro-2H-pyran-4-yl)methyl)amino)-6-nitro-1H-benzo[d]imidazol-4-yl)sulfonyl)-4-(2-(2-(2-isopropylphenyl)pyrrolidin-1-yl)-7-azaspiro[3.5]non-7-yl)benzamide] | < 10
COc1ccc(CN2CCN(C3CC4(CCN(c5cc(Oc6cnc7[nH]ccc7c6)c(C(=O)NS(=O)(=O)c6ccc(NC[C@H]7CC[C@](C)(O)CC7)c([N+](=O)[O-])c6)cc5F)CC4)C3)[C@H](c3ccccc3C(C)C)C2)cc1OC [compound 221, 2-((1H-pyrrolo[2,3-b]pyrid-5-yl)oxy)-4-(2-((R)-4-(3,4-dimethoxybenzyl)-2-(2-isopropylphenyl)piperazin-1-yl)-7-azaspiro[3.5]non-7-yl)-5-fluoro-N-((4-((((1r, 4r)-4-hydroxy-4-methylcyclohexyl)methyl)amino)-3-nitrophenyl)sulfonyl)benzamide] | < 10
CC(C)c1ccccc1[C@@H]1CCCN1C1CC2(CCN(c3cc(Oc4cnc5[nH]ccc5c4)c(C(=O)NS(=O)(=O)c4cc([N+](=O)[O-])c(NCC5(F)CCN(C(C)C)CC5)c5[nH]cnc45)cn3)CC2)C1 [compound 021, (S)-4-((1H-pyrrolo[2,3-b]pyrid-5-yl)oxy)-N-((7-(((4-fluoro-1-isopropylpiperid-4-yl)methyl)amino)-6-nitro-1H-benzo[d]imidazol-4-yl)sulfonyl)-6-(2-(2-(2-isopropylphenyl)pyrrolidin-1-yl)-7-azaspiro[3.5]non-7-yl) nicotinamide] | < 10

Results, then the compound that gave them:

IC50 [nM] | Compound
< 10 | COc1ccc(CN2CCN(C3CC4(CCN(c5ccc(C(=O)NS(=O)(=O)c6cc([N+](=O)[O-])c(NCC7(F)CCOCC7)c7c6OCCO7)c(Oc6cnc7[nH]ccc7c6)c5)CC4)C3)[C@H](c3ccccc3C(C)C)C2)cc1 [compound 181]
< 10 | CC(C)c1ccccc1[C@@H]1CCCN1C1CC2(CCN(c3cc(Oc4cnc5[nH]ccc5c4)c(C(=O)NS(=O)(=O)c4cc([N+](=O)[O-])c(NC[C@H]5CC[C@](C)(O)CC5)c5ocnc45)cc3F)CC2)C1 [compound 097, 2-((1H-pyrrolo[2,3-b]pyrid-5-yl)oxy)-5-fluoro-N-((7-((((1r, 4r)-4-hydroxy-4-methylcyclohexyl)methyl)amino)-6-nitrobenzo[d]oxazol-4-yl)sulfonyl)-4-(2-((S)-2-(2-isopropylphenyl)pyrrolidin-1-yl)-7-azaspiro[3.5]non-7-yl)benzamide]
< 10 | COc1ccc(CN2CCN(C3CC4(CCN(c5cc(Oc6cnc7[nH]ccc7c6)c(C(=O)NS(=O)(=O)c6cc([N+](=O)[O-])c(NCC7(F)CCOCC7)c7n[nH]c(=O)cc67)cc5F)CC4)C3)[C@H](c3ccccc3C(C)C)C2)cc1 [compound 141, (R)-2-((1H-pyrrolo[2,3-b]pyrid-5-yl)oxy)-5-fluoro-N-((8-(((4-fluorotetrahydro-2H-pyran-4-yl)methyl)amino)-7-nitro-3-oxo-2,3-misoline-5-yl)sulfonyl)-4-(2-(2-(2-isopropylphenyl)-4-(4-methoxybenzyl)piperazin-1-yl)-7-azaspiro[3.5]non-7-yl)benzamide]
< 10 | COc1ccc(CN2CCN(C3CC4(CCN(c5cc(Oc6cnc7[nH]ccc7c6)c(C(=O)NS(=O)(=O)c6cc([N+](=O)[O-])c(NCC7(F)CCOCC7)c7c6ncc(=O)n7C)cc5F)CC4)C3)[C@H](c3ccccc3C(C)C)C2)cc1
< 10 | CC(C)c1ccccc1C1CN(C(C)C)CCN1C1CC2(C1)CN(c1ccc(C(=O)NS(=O)(=O)c3cc([N+](=O)[O-])c(NCC4(F)CCN(C(C)C)CC4)c4[nH]cnc34)c(Oc3cnc4[nH]ccc4c3)c1)C2 (centres unmarked) [compound 042, 2-((1H-pyrrolo[2,3-b]pyrid-5-yl)oxy)-N-((7-(((4-fluoro-1-isopropylpiperid-4-yl)methyl)amino)-6-nitro-1H-benzo[d]imidazol-4-yl)sulfonyl)-4-(6-(4-isopropyl-2-(2-isopropylphenyl)piperazin-1-yl)-2-azaspiro[3.3]hept-2-yl)benzamide]
< 10 | COc1ccc(CN2CCN(C3CC4(CCN(c5cc(Oc6cnc7[nH]cc(F)c7c6)c(C(=O)NS(=O)(=O)c6ccc(NCC7(F)CCN(C(C)C)CC7)c([N+](=O)[O-])c6)cn5)CC4)C3)C(c3ccccc3C(C)C)C2)cc1 (centres unmarked) [compound 061, N-((4-(((4-fluoro-1-isopropylpiperid-4-yl)methyl)amino)-3-nitrophenyl)sulfonyl)-4-((3-fluoro-1H-pyrrolo[2,3-b]pyrid-5-yl)oxy)-6-(2-(2-(2-isopropylphenyl)-4-(4-methoxybenzyl)piperazin-1-yl)-7-azaspiro[3.5]non-7-yl) nicotinamide]
< 10 | COc1ccc(CN2CCN(C3CC4(CCN(c5cc(Oc6cnc7[nH]ccc7c6)c(C(=O)NS(=O)(=O)c6cc([N+](=O)[O-])c(NCC7(F)CCOCC7)c7c6OCCO7)cc5F)CC4)C3)[C@H](c3ccccc3C(C)C)C2)cc1 [compound 110, (R)-2-((1H-pyrrolo[2,3-b]pyrid-5-yl)oxy)-5-fluoro-N-((8-(((4-fluorotetrahydro-2H-pyran-4-yl)methyl)amino)-7-nitro-2,3-dihydrobenzo[b][1,4]dioxane-5yl)sulfonyl)-4-(2-(2-(2-isopropylphenyl)-4-(4-methoxybenzyl)piperazin-1-yl)-7-azaspiro[3.5]non-7-yl)benzamide]
< 10 | CC(C)c1ccccc1[C@@H]1CN(Cc2ccc(NS(C)(=O)=O)cc2)CCN1C1CC2(CCN(c3cc(Oc4cnc5[nH]ccc5c4)c(C(=O)NS(=O)(=O)c4ccc(NCC5(F)CCOCC5)c([N+](=O)[O-])c4)cc3F)CC2)C1 [compound 201, (R)-2-((1H-pyrrolo[2,3-b]pyrid-5-yl)oxy)-5-fluoro-N-((4-(((4-fluorotetrahydro-2H-pyran-4-yl)methyl)amino)-3-nitrophenyl)sulfonyl)-4-(2-(2-(2-isopropylphenyl)-4-(4-(methylsulfonylamino)benzyl)piperazin-1-yl)-7-azaspiro[3.5]non-7-yl)benzamide]
< 10 | COc1ccc(CN2CCN(C3CC4(CCN(c5cc(Oc6cnc7[nH]ccc7c6)c(C(=O)NS(=O)(=O)c6ccc(NCC7(F)CCOCC7)c([N+](=O)[O-])c6)cc5F)CC4)C3)[C@H](c3ccccc3C(C)C)C2)c2c1OCCO2 [compound 206, (R)-2-((1H-pyrrolo[2,3-b]pyrid-5-yl)oxy)-5-fluoro-N-((4-(((4-fluorotetrahydro-2H-pyran-4-yl)methyl)amino)-3-nitrophenyl)sulfonyl)-4-(2-(2-(2-isopropylphenyl)-4-(8-methoxy-2,3-dihydrobenzo[b][1,4-dioxan-5-yl)methyl)piperazin-1-yl)-7-azaspiro[3.5]non-7-yl)benzamide]
